Structures are written as SMILES.

One experiment deals with T1, human PPARγ2 (Homo sapiens, UniProt P37231).
T1 construct: the amino acids 182 to 505 of human PPARγ2; expressed in transfected cells; host or cells: COS7 cells
Nature of the experiment: PPARγ activation activity, Gal4 chimera luciferase transfection assay using COS7 cells. In kind it is cell-based. The following applies: for EC50 / Emax: COS7 cells; for EC50: Gal4-human PPARγ2 LBD chimera, luciferase reporter, 16 hours, read-out: EC50; for Emax: COS-7, 16 h, maximum activity strength relative to the maximum activity of rosiglitazone, read-out: % MAX vs Rosiglitazone. Here is the method:
The agonistic activity of the compounds of the invention on PPARγ was measured based on the transfection assay using COS7 cells (DS Pharma Biomedical Co., Ltd., Osaka, Japan), which are the cell line derived from the kidney of the African green monkey. COS7 cells were cultured under 5% CO2 concentration, and DMEM medium containing 10% fetal bovine serum, glutamic acid, and antibiotics was used as a medium.
As an expression vector, a chimera in which DNA binding domain of Gal4, which is a yeast transcription factor, and ligand binding domain of human PPAR^γ2 are fused, i.e., a fused product between the amino acids 1 to 147 of Gal4 transcription factor and the amino acids 182 to 505 of human PPARγ2, was used. Furthermore, as a reporter vector, a firefly luciferase containing five copies of Gal4 recognition sequence in the promoter region was used. Plasmid transfection to the cells was performed according to a method which uses jetPEI (trade name, manufactured by Funakoshi Co., Ltd., Tokyo, Japan). Furthermore, β-galactosidase expression vector was employed as an internal standard.
After the transfection of the cells, the medium was replaced with a DMEM medium (containing 1% serum) added with the compound, and the cells were further cultured for 16 hours. After that, the luciferase activity and β-galactosidase activity in the cell lysis solution were measured.
For the present test, dimethyl sulfoxide (DMSO) was used for dissolution and dilution of the test compounds, and during the cell treatment, the DMSO concentration in DMEM medium (containing 1% serum) was adjusted to 0.1%. As a positive compound, rosiglitazone (trade name, manufactured by ALEXIS Corporation, Switzerland) was used. […] The 50% effective concentration of the test compound (EC50, 50% effect concentration) was calculated by using SAS Preclinical Package Ver5.0 (trade name, manufactured by SAS institute Japan Co., Tokyo, Japan), which is a statistical analysis program.

The target of experiment [1] is T2, angiotensin II type 1 receptor (Oryctolagus cuniculus, UniProt P34976).
T2 construct: By using a specimen of isolated rabbit blood vessels; from tissue; host or cells: rabbit thoracic aorta ring (New Zealand White, male)
T2 sequence (P34976 1-359): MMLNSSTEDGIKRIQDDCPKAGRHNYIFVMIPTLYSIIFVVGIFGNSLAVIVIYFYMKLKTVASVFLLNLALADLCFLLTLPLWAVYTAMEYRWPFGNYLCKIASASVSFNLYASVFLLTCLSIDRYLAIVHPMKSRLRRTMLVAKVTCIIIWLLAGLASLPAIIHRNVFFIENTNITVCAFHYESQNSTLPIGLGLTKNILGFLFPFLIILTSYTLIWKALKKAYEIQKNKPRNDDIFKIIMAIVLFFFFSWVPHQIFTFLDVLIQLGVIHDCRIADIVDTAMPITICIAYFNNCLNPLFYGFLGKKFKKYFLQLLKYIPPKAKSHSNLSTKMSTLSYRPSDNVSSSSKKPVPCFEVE
Kind of experiment: Angiotensin II antagonistic activity in isolated rabbit blood vessels. Conditions: angiotensin II (10 nM)-induced contraction of rabbit thoracic aorta ring. How it is done:
By using a specimen of isolated rabbit blood vessels, antagonistic activity of the compounds of the invention against angiotensin II type 1 receptor was estimated from a dose-response curve of angiotensin II-induced blood vessel contraction.
During the measurement, the inside temperature of the magnus bath was maintained at 37° C. and the bath was continuously ventilated with a sufficient amount of mixed gas (95% O2 and 5% CO2). The angiotensin II-induced contraction was converted into a relative value (%) that is based on the angiotensin II (10 nM)-induced contraction in the absence of the compounds of each example. From the concentration-response curve obtained therefrom, 50% inhibition concentration (IC50 value) was calculated by using SAS Preclinical Package Ver5.0 (trade name, manufactured by SAS institute Japan Co., Tokyo, Japan), which is a statistical analysis program.

T1 sequence (P37231 182-505): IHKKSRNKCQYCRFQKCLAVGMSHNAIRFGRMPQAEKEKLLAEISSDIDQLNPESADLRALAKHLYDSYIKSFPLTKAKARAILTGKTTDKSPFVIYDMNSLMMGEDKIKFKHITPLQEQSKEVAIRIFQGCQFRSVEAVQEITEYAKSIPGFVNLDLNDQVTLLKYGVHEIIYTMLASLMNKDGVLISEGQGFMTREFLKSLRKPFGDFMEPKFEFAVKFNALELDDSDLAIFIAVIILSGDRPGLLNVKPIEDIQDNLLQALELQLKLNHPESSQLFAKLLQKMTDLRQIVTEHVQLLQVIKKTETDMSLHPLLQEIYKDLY
T1 sequence (P04386 1-147 partner limits assumed): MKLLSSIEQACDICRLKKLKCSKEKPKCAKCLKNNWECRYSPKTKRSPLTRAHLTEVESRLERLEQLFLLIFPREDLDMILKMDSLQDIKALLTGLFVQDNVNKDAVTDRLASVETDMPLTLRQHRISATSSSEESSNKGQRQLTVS

By EC50 is commonly meant the concentration at which the effect is half-maximal. In general, IC50 refers to the midpoint of a concentration-inhibition curve. Consider `CCCCc1nc(C)n(-c2ccc(C(F)(F)F)cn2)c(=O)c1Cc1ccc(-c2ccccc2-c2nnn[nH]2)cc1` [Example 11, 5-{[2′-(1H-tetrazol-5-yl)biphenyl-4-yl]methyl}-6-butyl-2-methyl-3-[5-(trifluoromethyl)pyridin-2-yl]pyrimidin-4(3H)-one], for which, on human PPARγ2, the half-maximal effective concentration (EC50) came out at 1300 nM and the Emax worked out at 48.6%. Further, the “maximum activity compared with telmisartan” value on human PPARγ2 (maximum PPARγ activity, telmisartan 30 to 50% of rosiglitazone under the same condition) is reported as “the same or greater than that of telmisartan”. Moreover, inhibition in experiment [1] was half-maximal at 981 nM (IC50).

Turning to `CCCCc1nc(C)n(-c2ncc(C(F)(F)F)cc2Cl)c(=O)c1Cc1ccc(-c2ccccc2-c2nnn[nH]2)cc1` [Example 13, 5-{[2′-(1H-tetrazol-5-yl)biphenyl-4-yl]methyl}-6-butyl-3-[3-chloro-5-(trifluoromethyl)pyridin-2-yl]-2-methylpyrimidin-4(3H)-one], on human PPARγ2, the EC50 is 170 nM. The compound also yielded a 50% inhibitory concentration (IC50) in experiment [1] of 26 nM.

In the case of `CCCCc1nc(C)n(-c2ncc(Br)cn2)c(=O)c1Cc1ccc(-c2ccccc2-c2nnn[nH]2)cc1` [Example 16, 5-{[2′-(1H-tetrazol-5-yl)biphenyl-4-yl]methyl}-3-(5-bromopyrimidin-2-yl)-6-butyl-2-methylpyrimidin-4 (3H)-one], at human PPARγ2, the EC50 stood at 2410 nM and the Emax amounted to 35.5%. Also, it took 14 nM to reach half-maximal inhibition in experiment [1] (IC50).

As to `CCCCc1nc(C)n(-c2ncc(OCc3ccccc3)cn2)c(=O)c1Cc1ccc(-c2ccccc2-c2nnn[nH]2)cc1` [Example 19, 5-{[2′-(1H-tetrazol-5-yl)biphenyl-4-yl]methyl}-3-[5-(benzyloxy)pyrimidin-2-yl]-6-butyl-2-methylpyrimidin-4 (3H)-one], the EC50 on human PPARγ2 was determined as 2550 nM. The midpoint of inhibition in experiment [1], the IC50, lay at 396 nM.

With `CCCCc1nc(C)n(-c2ncc(OCC)cn2)c(=O)c1Cc1ccc(-c2ccccc2-c2nnn[nH]2)cc1` [Example 21, 5-{[2′-(1H-tetrazol-5-yl)biphenyl-4-yl]methyl}-6-butyl-3-(5-ethoxypyrimidin-2-yl)-2-methylpyrimidin-4 (3H)-one], the EC50 at human PPARγ2 is 1590 nM. The half-inhibitory concentration (IC50) in experiment [1] is 17 nM.

Turning to `CCCCc1nc(C)n(-c2ncc(OCCC)cn2)c(=O)c1Cc1ccc(-c2ccccc2-c2nnn[nH]2)cc1` [Example 22, 5-{[2′-(1H-tetrazol-5-yl)biphenyl-4-yl]methyl}-6-butyl-2-methyl-3-(5-propoxypyrimidin-2-yl)pyrimidin-4 (3H)-one], at human PPARγ2, the concentration giving a half-maximal response (EC50) is 590 nM and the Emax worked out at 22.8%. In experiment [1], this compound registered a half-inhibitory concentration (IC50) of 155 nM.

Take `CCCCc1nc(C)n(-c2ncc(OC(C)C)cn2)c(=O)c1Cc1ccc(-c2ccccc2-c2nnn[nH]2)cc1` [Example 23, 5-{[2′-(1H-tetrazol-5-yl)biphenyl-4-yl]methyl}-6-butyl-3-(5-isopropoxypyrimidin-2-yl)-2-methylpyrimidin-4 (3H)-one]: the EC50 on human PPARγ2 is 890 nM. The compound also returned an IC50 in experiment [1] of 22 nM.

Regarding `CCCCOc1cnc(-n2c(C)nc(CCCC)c(Cc3ccc(-c4ccccc4-c4nnn[nH]4)cc3)c2=O)nc1` [Example 24, 5-{[2′-(1H-tetrazol-5-yl)biphenyl-4-yl]methyl}-3-(5-butoxypyrimidin-2-yl)-6-butyl-2-methylpyrimidin-4 (3H)-one], the EC50 at human PPARγ2 is 860 nM. For the same compound, the IC50 in experiment [1] was found to be 141 nM.

On to `CCCCc1nc(C)n(-c2ncc(OCCSC)cn2)c(=O)c1Cc1ccc(-c2ccccc2-c2nnn[nH]2)cc1` [Example 26, 5-{[2′-(1H-tetrazol-5-yl)biphenyl-4-yl]methyl}-6-butyl-2-methyl-3-{5-[2-(methylthio)ethoxy]pyrimidin-2-yl}pyrimidin-4 (3H)-one], for which, at human PPARγ2, the EC50 was 3890 nM. This compound returned an IC50 in experiment [1] of 24 nM.

In the case of `CCCCc1nc(C)n(-c2ncc(OC3CCCCC3)cn2)c(=O)c1Cc1ccc(-c2ccccc2-c2nnn[nH]2)cc1` [Example 28, 5-{[2′-(1H-tetrazol-5-yl)biphenyl-4-yl]methyl}-6-butyl-3-[5-(cyclohexyloxy)pyrimidin-2-yl]-2-methylpyrimidin-4 (3H)-one], on human PPARγ2, the concentration for a half-maximal effect (EC50) was determined as 1230 nM and the Emax came out at 28.9%. Also, the midpoint of inhibition in experiment [1], the IC50, lay at 49 nM.

For `CCCCc1nc(C)n(-c2ncc(OCCc3ccc(CC)cn3)cn2)c(=O)c1Cc1ccc(-c2ccccc2-c2nnn[nH]2)cc1` [Example 36, 5-{[2′-(1H-tetrazol-5-yl)biphenyl-4-yl]methyl}-6-butyl-3-{5-[2-(5-ethylpyridin-2-yl)ethoxy]pyrimidin-2-yl}-2-methylpyrimidin-4 (3H)-one], the concentration for a half-maximal effect (EC50) on human PPARγ2 worked out at 3770 nM. Further, the IC50 in experiment [1] turned out to be 627 nM.

As for `CCCCc1nc(C)n(-c2ncc(OC(C(=O)O)c3ccccc3)cn2)c(=O)c1Cc1ccc(-c2ccccc2-c2nnn[nH]2)cc1` (stereo not shown) [Example 42, 2-{2-{5-{[2′-(1H-tetrazol-5-yl)biphenyl-4-yl]methyl}-4-butyl-2-methyl-6-oxopyrimidin-1(6H)-yl}pyrimidin-5-yloxy}-2-phenylacetic acid], the concentration for a half-maximal effect (EC50) at human PPARγ2 stood at 4220 nM. Moreover, the half-inhibitory concentration (IC50) in experiment [1] turned out to be 2.7 nM.

Regarding `CCCCc1nc(C)n(-c2ncc(OCCCC(N)=O)cn2)c(=O)c1Cc1ccc(-c2ccccc2-c2nnn[nH]2)cc1` [Example 47, 4-{2-{5-{[2′-(1H-tetrazol-5-yl)biphenyl-4-yl]methyl}-4-butyl-2-methyl-6-oxopyrimidin-1(6H)-yl}pyrimidin-5-yloxy}butanamide], the EC50 at human PPARγ2 was 80 nM. The IC50 in experiment [1] was found to be 2.6 nM.

As for `CCCCc1nc(C)n(-c2ncc(OCCCC(=O)NCC)cn2)c(=O)c1Cc1ccc(-c2ccccc2-c2nnn[nH]2)cc1` [Example 49, 4-{2-{5-{[2′-(1H-tetrazol-5-yl)biphenyl-4-yl]methyl}-4-butyl-2-methyl-6-oxopyrimidin-1(6H)-yl}pyrimidin-5-yloxy}-N-ethylbutanamide], the concentration giving a half-maximal response (EC50) at human PPARγ2 was 70 nM. This compound also registered an IC50 in experiment [1] of 12 nM.

Turning to `CCCCc1nc(C)n(-c2ncc(OCCCC(=O)N(CC)CC)cn2)c(=O)c1Cc1ccc(-c2ccccc2-c2nnn[nH]2)cc1` [Example 52, 4-{2-{5-{[2′-(1H-tetrazol-5-yl)biphenyl-4-yl]methyl}-4-butyl-2-methyl-6-oxopyrimidin-1(6H)-yl}pyrimidin-5-yloxy}-N,N-diethylbutanamide], the half-maximal effective concentration (EC50) on human PPARγ2 worked out at 140 nM. Moreover, in experiment [1], the midpoint of inhibition, the IC50, lay at 8.3 nM.

For `CCCCc1nc(C)n(-c2ncc(OCCCNS(=O)(=O)C(F)(F)F)cn2)c(=O)c1Cc1ccc(-c2ccccc2-c2nnn[nH]2)cc1` [Example 58, N-{3-{2-{5-{[2′-(1H-tetrazol-5-yl)biphenyl-4-yl]methyl}-4-butyl-2-methyl-6-oxopyrimidin-1 (6H)-yl}pyrimidin-5-yloxy}propyl}-1,1,1-trifluoromethane sulfonamide], the EC50 on human PPARγ2 worked out at 1910 nM. This compound had an IC50 in experiment [1] of 352 nM.

In the case of `CCCCc1nc(C)n(-c2cc(OC)nc(OC)n2)c(=O)c1Cc1ccc(-c2ccccc2-c2nnn[nH]2)cc1` [Example 59], the concentration for a half-maximal effect (EC50) on human PPARγ2 was found to be 1240 nM. The same compound displayed a half-inhibitory concentration (IC50) in experiment [1] of 13 nM.

As to `CCCCc1nc(C)n(-c2nccs2)c(=O)c1Cc1ccc(-c2ccccc2-c2nnn[nH]2)cc1` [Example 62, 5-{[2′-(1H-tetrazol-5-yl)biphenyl-4-yl]methyl}-6-butyl-2-methyl-3-(thiazol-2-yl)pyrimidin-4 (3H)-one], the EC50 on human PPARγ2 worked out at 3390 nM. In experiment [1], the IC50 is 435 nM.

Turning to `CCCCc1nc(C)n(-c2ccon2)c(=O)c1Cc1ccc(-c2ccccc2-c2nnn[nH]2)cc1` [Example 63, 5-{[2′-(1H-tetrazol-5-yl)biphenyl-4-yl]methyl}-6-butyl-3-(isoxazol-3-yl)-2-methylpyrimidin-4 (3H)-one], the EC50 at human PPARγ2 was 3670 nM. The concentration for half-maximal inhibition (IC50) in experiment [1] stood at 193 nM.

The record behind these values is patent US8664226B2, “Compound having 3-heteroarylpyrimidin-4-(3H)-one structure and pharmaceutical preparation containing same” (Kowa Company, Ltd., priority 2009, dated 2014).
